These results are taken from patent EP0617001B1, “Phenoxyphenylacetic acid derivatives” (Merck & Co., Inc., priority 1993, dated 1994).

Structures can show the parent of a compound that is named as a salt.

Test [1] has as its system Anesthetized Male Dog. As to the kind of experiment: ET-1 induced changes in diastolic blood pressure (DBP) and intra-urethral pressure (IUP) in the anesthetized male dog. The following applies: for % INHIBITION of ET-1 induced change in DBP, DEPRESSOR / % INHIBITION of ET-1 induced change in DBP, PRESSOR / % INHIBITION of ET-1 induced change in IUP, PRESSOR: 30 mg/kg intra-venous. Type of test: in vivo, mongrel dog. On the procedure: Methodology for determining whether an ET-1 selective antagonist could inhibit the ET-1 mediated prostatic urethral contractions in a mongrel dog model:
(§1) On separate days, two fasted male mongrel dogs (HRP, Inc.) weighing 11.0 and 12.4 kg, were anesthetized with Sodium Pentobarbital (Steris Laboratories, Inc.) at 35 mg/kg (i.v.) to effect, followed by 4 mg/kg/hr (i.v.) infusion. A cuffed endotracheal tube was inserted and each animal was ventilated with room air using a positive displacement large animal ventilator (Harvard Apparatus) at a rate of 18 breaths/minute and an average tidal volume of 18 ml/kg body weight. Body temperature was maintained with a heating pad and heat lamp using a temperature controller (YSI) and esophageal probe. Two catheters (PE 260) were placed in the aorta via the femoral arteries (one in each artery) for administration of endothelin or phenylephrine and for continuous direct monitoring of blood pressure and heart rate using a Statham blood pressure transducer (Spectramed) and a computer system (Modular Instruments, Inc.). Two other catheters (PE 260) were placed in the vena cava via the femoral veins (one catheter in each vein) for administration of pentobarbital and N-(4-iso-propylbenzenesulfonyl)-α-(4-carboxy-2-n-propylphenoxy)-3,4-methylenedioxyphenylacetamide dipotassium salt [Example 42]. A supra-pubic incision approximately one-half inch lateral to the penis was made to expose the ureters, urinary bladder, prostate, and urethra. The dome of the bladder was retracted to facilitate dissection of the ureters. The ureters were cannulated with PE 90 and tied off to the bladder. Umbilical tape was passed beneath the urethra at the bladder neck and another piece of tape was placed approximately 1-2 cm. distal to the prostate. The bladder dome was incised and a Micro-tip® catheter transducer (Millar Instruments, Inc.) was advanced into the urethra. The neck of the bladder was ligated with the umbilical tape to hold the transducer. The bladder incision was sutured wit 3-0 silk (purse string suture). The transducer was withdrawn until it was positioned in the prostatic urethra. The position of the Micro-tip® catheter was verified by gently squeezing the prostate and noting the large change in urethral pressure prior to ligating the distal urethra.
Phenylephrine (PB) (10 µg/kg, intra-arterial) was administered and pressor effects on diastolic blood pressure (DBP) and intra-urethral pressure (IUP) were noted. When blood pressure returned to baseline, endothelin-1 (ET-1) (1 nmole/kg, intra-arterial) was administered. Changes in DBP and IUP were monitored for one hour and an ET-1 selective endothelin antagonist, such as the compound of Example 42, N-(4-iso-propylbenzene-sulfonyl)-α-(4-carboxy-2-n-propylphenoxy)-3,4-methylenedioxyphenyl-acetamide dipotassium salt (30 mg/kg, intra-venous) was administered. Ten to fifteen minutes later when blood pressure had stabilized, ET-1 was administered again, and inhibition of ET-1 induced effects were noted. PE was administered at the end of the experiment to verify specificity for ET-1 blockade. The dogs were euthanized with an overdose of pentobarbital followed by saturated KCl.
(§2) All drugs were dissolved in isotonic saline solution.

The test system of test [2] is rat prostate. As to the kind of experiment: In situ rat prostate: ET-1 induced contraction. Type of test: in vivo, Sprague-Dawley rats. The following applies: antagonist injected IA. On the procedure: Male Sprague-Dawley rats (Taconic Farms) weighing 300-400 grams were anesthetized with urethane (1.75 g/kg, ip), a tracheal cannula was inserted, and the femoral artery was cannulated. Core body temperature was maintained at 37 + 0.5 °C. A 4-5 cm midline abdominal incision was made to expose the bladder and prostate. The prostate was separated from the bladder and surrounding capsule by blunt dissection with a forcep. A length of surgical silk was gently secured around the anterior tips of the prostate lobes. A second length of surgical silk attached to an atraumatic needle was passed through and tied to the base of the prostate approximately 10-12 mm posterior to the first tie. The posterior ligature was secured to an anchor post whereas the anterior ligature was connected to a Grass FT03 transducer (Grass Instruments, Quincy, MA) and maintained at a tension of 1 g. Signals from the transducer were amplified and recorded on a polygraph (Hewlett-Packard 8805B amplifiers and 7758A recorder, Palo Alto, CA). After equilibrating for approximately 15 min, the rats were administered pretreatment drugs (atropine 1 mg/kg, (+) propranolol 1 mg/kg) 10 min apart through the intra-arterial (IA) cannula. […] The response of the prostate to FT-1 was quantified by measuring the change (Δ) from baseline tension to the peak of the response during the 5-minute period after the third FT-1 injection.

The test system of test [3] is Anesthetized Male Dog. As to the kind of experiment: Phenylephrine (PE)-induced changes in DBP and IUP in the anesthetized male dog (specificity for ET-1 blockade). The format is in vivo, mongrel dog. The protocol: as §1, with “Two other catheters (PE 260) were placed in the vena cava via the femoral veins (one catheter in each vein) for administration of pentobarbital and N-(4-iso-propylbenzenesulfonyl)-α-(4-carboxy-2-n-propylphenoxy)-3,4-methylenedioxyphenylacetamide dipotassium salt [Example 42].” left out
Phenylephrine (PB) (10 µg/kg, intra-arterial) was administered and pressor effects on diastolic blood pressure (DBP) and intra-urethral pressure (IUP) were noted. When blood pressure returned to baseline, endothelin-1 (ET-1) (1 nmole/kg, intra-arterial) was administered. […] Ten to fifteen minutes later when blood pressure had stabilized, ET-1 was administered again, and inhibition of ET-1 induced effects were noted. PE was administered at the end of the experiment to verify specificity for ET-1 blockade. The dogs were euthanized with an overdose of pentobarbital followed by saturated KCl.
as §2

The mark [4] stands for this setting: ET-1 challenge after antagonist 30 mg/kg intra-venous, MEAN, n=2 dogs.
Setting [5] is: ET-1 challenge after antagonist 30 mg/kg intra-venous, dog HG FMHK.
[6] abbreviates: ET-1 challenge after antagonist 30 mg/kg intra-venous, dog HG FMJC.
The mark [7] stands for this setting: 30 mg/kg intra-venous, dog HG FMJC.
Setting [8] is: Phenylephrine alone, 10 µg/kg intra-arterial, dog HG FMJC.
The mark [9] stands for this setting: ET-1 (i.a.) alone, 1 nmole/kg, MEAN, n=2 dogs.
[10] abbreviates: ET-1 (i.a.) alone, 1 nmole/kg, dog HG FMHK.
The mark [11] stands for this setting: ET-1 (i.a.) alone, 1 nmole/kg, dog HG FMJC.

As for `CCCc1cc(C(=O)O)ccc1OC(C(=O)NS(=O)(=O)c1ccc(C(C)C)cc1)c1ccc2c(c1)OCO2` (stereo not drawn) [Example 42, N-(4-iso-propylbenzenesulfonyl)-α-(4-carboxy-2-n-propylphenoxy)-3,4-methylenedioxyphenylacetamide dipotassium salt], in test [1] (MEAN, n=2 dogs), the “% INHIBITION of ET-1 induced change in DBP, DEPRESSOR” value turned out to be 69%; the “% INHIBITION of ET-1 induced change in DBP, PRESSOR” value was 76%; the “% INHIBITION of ET-1 induced change in IUP, PRESSOR” value was 93%. Moreover, in test [1] (dog HG FMHK), the “% INHIBITION of ET-1 induced change in DBP, DEPRESSOR” value is 67%; the “% INHIBITION of ET-1 induced change in DBP, PRESSOR” value was found to be 94%; the “% INHIBITION of ET-1 induced change in IUP, PRESSOR” value is listed as 91%. Moreover, in test [1] (dog HG FMJC), the “% INHIBITION of ET-1 induced change in DBP, DEPRESSOR” value worked out at 70%; the “% INHIBITION of ET-1 induced change in DBP, PRESSOR” value is 58%; the “% INHIBITION of ET-1 induced change in IUP, PRESSOR” value is listed as 94%. For the same compound, in test [1] (setting [4]), the “CHANGE IN DBP (mmHg) DEPRESSOR” value is -4 mmHg, the “CHANGE IN DBP (mmHg) PRESSOR” value is on record as 5 mmHg and the “CHANGE IN IUP (mmHg) PRESSOR” value turned out to be 1 mmHg. In addition, in test [1] (setting [5]), the “CHANGE IN DBP (mmHg) DEPRESSOR” value is listed as -5 mmHg, the “CHANGE IN DBP (mmHg) PRESSOR” value worked out at 2 mmHg and the “CHANGE IN IUP (mmHg) PRESSOR” value was determined as 1 mmHg. In test [1] (setting [6]), the “CHANGE IN DBP (mmHg) DEPRESSOR” value was -3 mmHg, the “CHANGE IN DBP (mmHg) PRESSOR” value is 8 mmHg and the “CHANGE IN IUP (mmHg) PRESSOR” value worked out at 1 mmHg. Also, the “hemodynamic and prostatic urethral responses to ET-1” value in test [1] (anesthetized dogs) is “specifically inhibited”. For the same compound, in test [2], the “inhibition of ET-1 to contract the prostate” value was “specific inhibition”. Further, in test [3] (setting [7]), the “% Inhibition of Control, PE-induced INCREASE IN DBP” value was 35% and the “% Inhibition of Control, PE-induced INCREASE IN IUP” value came to 13%. Besides, in test [3] (one dog studied), the “Intra-arterial PE-induced increases in DBP and IUP after administration” value is given as “did not change significantly”.

With `CNC[C@H](O)c1cccc(O)c1` [Phenylephrine, reference compound], in test [3] (setting [8]), the “INCREASE IN DBP (mmHg)” value came to 17 mmHg and the “INCREASE IN IUP (mmHg)” value was determined as 31 mmHg.

Take Endothelin-1 [ET-1]: in test [1] (setting [9]), the “CHANGE IN DBP (mmHg) DEPRESSOR” value is -13 mmHg, the “CHANGE IN DBP (mmHg) PRESSOR” value was 26 mmHg and the “CHANGE IN IUP (mmHg) PRESSOR” value is given as 15 mmHg. In test [1] (setting [10]), the “CHANGE IN DBP (mmHg) DEPRESSOR” value was -15 mmHg, the “CHANGE IN DBP (mmHg) PRESSOR” value came out at 33 mmHg and the “CHANGE IN IUP (mmHg) PRESSOR” value was found to be 11 mmHg. Further, in test [1] (setting [11]), the “CHANGE IN DBP (mmHg) DEPRESSOR” value is reported as -10 mmHg, the “CHANGE IN DBP (mmHg) PRESSOR” value was determined as 19 mmHg and the “CHANGE IN IUP (mmHg) PRESSOR” value is recorded as 18 mmHg. Moreover, the “decrease in DBP” value in test [1] (ET-1 alone, 1 nmole/kg intra-arterial, average of both dogs) was found to be 13 mmHg.
